These are literature values, as cited in US7214387B2, “Sustained release formulations of metformin” (Penwest Pharmaceuticals Company, priority 2002, dated 2007).

The subject of the series is serum lipids.

`CN(C)C(=N)NC(=N)N` [metformin, N,N-dimethylimidodicarbonimidicdiamide]: where the note is “clinical studies”, the “effects on other lipid levels” value is listed as “no adverse effects”. Moreover, the “mean fasting serum triglycerides, total cholesterol, and LDL cholesterol levels” value (particularly when baseline lipid levels were abnormally elevated) is recorded as “lowered”.
